Results reported in ChEMBL document CHEMBL5365457, “Selective HDAC3 Inhibitors with Potent In Vivo Antitumor Efficacy against Triple-Negative Breast Cancer” (J Med Chem, 2023).
Calls of active or inactive are those of the source. The calls are words filed in the database; no cut-off is given here.

Experiments:
[1] = test system: 4T1; assay: Antitumor activity against mouse 4T1 cells implanted in BALB/c mouse assessed as tumor growth inhibition at 5 mg/kg, ip measured on day 14; type: functional; details: 4T1, 336 h, time 14 day, read-out: TGI
[2] = test system: 4T1; assay: Antitumor activity against mouse 4T1 cells implanted in BALB/c mouse assessed as reduction in tumor weight at 5 mg/kg, ip administered 5 times a week for 21 days; type: functional; details: time 21 day
[3] = Selectivity ratio of IC50 for cytotoxicity against human HEK293 cells assessed as inhibition of cell growth to IC50 for cytotoxicity against human MCF7 cells assessed as inhibition of cell growth; type: toxicity, cell-based; details: HEK293 cells versus MCF7 cells, read-out: Ratio IC50
[4] = target: T1, Histone deacetylase 1 (Homo sapiens, UniProt Q13547); assay: Inhibition of human recombinant HDAC1 incubated for 15 mins by fluorescence based microplate analysis
T1 sequence (Q13547 whole entry): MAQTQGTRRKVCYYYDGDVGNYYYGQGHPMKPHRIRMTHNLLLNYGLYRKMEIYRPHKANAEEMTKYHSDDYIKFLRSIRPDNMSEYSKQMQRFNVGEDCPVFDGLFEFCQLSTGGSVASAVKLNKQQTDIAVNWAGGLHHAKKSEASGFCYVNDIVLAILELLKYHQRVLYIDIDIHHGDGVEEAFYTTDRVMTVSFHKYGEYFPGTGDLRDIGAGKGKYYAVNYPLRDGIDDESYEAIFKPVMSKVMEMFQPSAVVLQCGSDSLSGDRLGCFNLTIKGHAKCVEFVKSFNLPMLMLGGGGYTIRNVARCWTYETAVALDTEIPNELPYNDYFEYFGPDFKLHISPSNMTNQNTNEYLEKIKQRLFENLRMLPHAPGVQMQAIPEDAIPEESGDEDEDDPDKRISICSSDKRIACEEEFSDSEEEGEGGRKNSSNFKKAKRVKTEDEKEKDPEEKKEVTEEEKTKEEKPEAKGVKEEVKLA

[5] = Apparent volume of distribution in Wistar rat at 5 mg/kg, ip measured upto 24 hrs by HPLC analysis; type: ADME, organism-based; details: in vivo
[6] = target: T2, Histone deacetylase 8 (Homo sapiens, UniProt Q9BY41); assay: Inhibition of human recombinant HDAC8 incubated for 15 mins by fluorescence based microplate analysis
T2 sequence (Q9BY41 whole entry): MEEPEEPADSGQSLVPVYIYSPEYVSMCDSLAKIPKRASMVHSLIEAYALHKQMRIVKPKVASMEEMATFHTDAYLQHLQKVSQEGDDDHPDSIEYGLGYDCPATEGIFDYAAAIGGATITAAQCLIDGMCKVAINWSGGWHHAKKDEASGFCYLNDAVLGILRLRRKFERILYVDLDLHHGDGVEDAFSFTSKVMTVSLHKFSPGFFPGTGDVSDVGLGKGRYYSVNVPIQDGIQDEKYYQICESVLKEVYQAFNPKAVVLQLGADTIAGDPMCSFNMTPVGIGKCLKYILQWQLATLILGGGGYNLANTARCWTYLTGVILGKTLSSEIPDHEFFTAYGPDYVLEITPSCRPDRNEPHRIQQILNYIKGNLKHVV

[7] = test system: 4T1; assay: Antitumor activity against mouse 4T1 cells implanted in BALB/c mouse assessed as increase in apoptosis in tumor tissue at 5 to 15 mg/kg, ip by TUNEL staining based microscopic analysis; type: functional, organism-based; details: dose 5-15 mg/kg
[8] = Cmax in Wistar rat at 5 mg/kg, ip measured upto 24 hrs by HPLC analysis; type: ADME, organism-based; design: time < 24 hrs, dose 5 mg/kg, route ip; details: in vivo
[9] = test system: 4T1; assay: Induction of apoptosis in mouse 4T1 cells at 2.75 uM incubated for 72 hrs by annexin/PI staining based flow cytometry analysis (reference value: 1.35%); type: functional
[10] = test system: 4T1; assay: Induction of apoptosis in mouse 4T1 cells assessed as increase caspase 3/7 level at 1 uM by Western blot analysis; type: functional, cell-based
[11] = Cytotoxicity against human HEK293 cells assessed as inhibition of cell growth incubated for 72 hrs by MTT assay; type: toxicity, cell-based
[12] = test system: 4T1; assay: Antitumor activity against mouse 4T1 cells implanted in BALB/c mouse assessed as reduction in EGFR protein level in tumor at 5 to 15 mg/kg, ip by Western blot analysis; type: functional, organism-based; details: dose 5-15 mg/kg
[13] = Toxicity in BALB/c mouse implanted with mouse 4T1 cells assessed as liver damage at 5 to 15 mg/kg, ip measured after 21 days by H and E staining based assay; type: organism-based; details: in vivo, 504 h, dose 5-15 mg/kg, time 21 day
[14] = test system: 4T1; assay: Induction of apoptosis in mouse 4T1 cells at 38.6 uM incubated for 72 hrs by annexin/PI staining based flow cytometry analysis (reference value: 1.35%); type: functional
[15] = test system: 4T1; assay: In-vivo inhibition of HDAC3 in BALB/c mouse implanted with mouse 4T1 cells assessed as increase in acetylation of tubulin level at 5 to 15 mg/kg, ip by Western blot analysis; type: functional, organism-based; details: dose 5-15 mg/kg
[16] = test system: 4T1; assay: Antitumor activity against mouse 4T1 cells implanted in BALB/c mouse assessed as reduction in tumor volume at 5 mg/kg, ip administered 5 times a week for 21 days (reference value: 52.05+/-13.23 mm3); type: functional; details: time 21 day
[17] = test system: 4T1; assay: Antitumor activity against mouse 4T1 cells implanted in BALB/c mouse assessed as tumor growth inhibition at 15 mg/kg, ip measured on day 7; type: functional; details: 4T1, 168 h, time 7 day, read-out: TGI
[18] = Toxicity in BALB/c mouse implanted with mouse 4T1 cells assessed as kidney damage at 5 to 15 mg/kg, ip measured after 21 days by H and E staining based assay; type: organism-based; details: in vivo, 504 h, dose 5-15 mg/kg, time 21 day
[19] = test system: 4T1; assay: Antitumor activity against mouse 4T1 cells implanted in BALB/c mouse assessed as upregulation of caspase-3 level in tumor at 5 to 15 mg/kg, ip by Western blot analysis; type: functional, organism-based; details: dose 5-15 mg/kg
[20] = test system: 4T1; assay: Antitumor activity against mouse 4T1 cells implanted in BALB/c mouse assessed as reduction in Ki-67 protein level in tumor at 5 to 15 mg/kg, ip by Western blot analysis; type: functional, organism-based; details: dose 5-15 mg/kg
[21] = AUC (0 to t) in Wistar rat at 15 mg/kg, ip measured upto 24 hrs by HPLC analysis; type: ADME, organism-based; design: dose 15 mg/kg, time < 24 hrs, route ip; details: in vivo
[22] = Selectivity ratio of IC50 for cytotoxicity against human HEK293 cells assessed as inhibition of cell growth to IC50 for cytotoxicity against mouse 4T1 cells assessed as inhibition of cell growth; type: toxicity, cell-based; details: HEK293 cells versus 4T1 cells, read-out: Ratio IC50
[23] = Cmax in Wistar rat at 15 mg/kg, ip measured upto 24 hrs by HPLC analysis; type: ADME, organism-based; design: dose 15 mg/kg, time < 24 hrs, route ip; details: in vivo
[24] = Toxicity in BALB/c mouse implanted with mouse 4T1 cells assessed as spleen damage at 5 to 15 mg/kg, ip measured after 21 days by H and E staining based assay; type: organism-based; details: in vivo, 504 h, dose 5-15 mg/kg, time 21 day
[25] = test system: 4T1; assay: Antitumor activity against mouse 4T1 cells implanted in BALB/c mouse assessed as reduction in tumor volume at 50 to 100 mg/kg, ip administered 5 times a week for 21 days; type: functional, organism-based; details: dose 50-100 mg/kg, time 21.0 day
[26] = MRT (0 to infinity) in Wistar rat at 15 mg/kg, ip measured upto 24 hrs by HPLC analysis; type: ADME, organism-based; details: in vivo
[27] = test system: 4T1; assay: Cytotoxicity against mouse 4T1 cells assessed as inhibition of cell growth incubated for 72 hrs by MTT assay; type: functional, cell-based; details: 4T1, 72 h
[28] = Metabolic stability in rat liver microsome assessed as intrinsic clearance preincubated for 5 mins followed by NADPH addition and measured after 60 mins by HPLC analysis; type: ADME; details: liver microsomes, time 65 min, read-out: CLH
[29] = test system: 4T1; assay: Antitumor activity against mouse 4T1 cells implanted in BALB/c mouse assessed as reduction in tumor volume at 15 mg/kg, ip administered 5 times a week for 21 days (reference value: 52.05+/-12.35 mm3); type: functional; details: time 21 day
[30] = target: T1, Histone deacetylase 1; assay: Inhibition of full length N-terminal human recombinant HDAC1 at 1 uM incubated for 30 mins by fluorescence based microplate assay relative to control
[31] = Cytotoxicity against human MCF-10A cells assessed as inhibition of cell growth incubated for 72 hrs by MTT assay; type: toxicity, cell-based
[32] = test system: 4T1; assay: Induction of apoptosis in mouse 4T1 cells assessed as nuclear fragmentation incubated for 72 hrs by acridine orange staining based analysis; type: functional, cell-based
[33] = target: Histone deacetylase 2 (Homo sapiens, UniProt Q92769); assay: Inhibition of human recombinant HDAC2 at 1 uM incubated for 30 mins by fluorescence based microplate assay relative to control
Histone deacetylase 2, sequence (Q92769 whole entry): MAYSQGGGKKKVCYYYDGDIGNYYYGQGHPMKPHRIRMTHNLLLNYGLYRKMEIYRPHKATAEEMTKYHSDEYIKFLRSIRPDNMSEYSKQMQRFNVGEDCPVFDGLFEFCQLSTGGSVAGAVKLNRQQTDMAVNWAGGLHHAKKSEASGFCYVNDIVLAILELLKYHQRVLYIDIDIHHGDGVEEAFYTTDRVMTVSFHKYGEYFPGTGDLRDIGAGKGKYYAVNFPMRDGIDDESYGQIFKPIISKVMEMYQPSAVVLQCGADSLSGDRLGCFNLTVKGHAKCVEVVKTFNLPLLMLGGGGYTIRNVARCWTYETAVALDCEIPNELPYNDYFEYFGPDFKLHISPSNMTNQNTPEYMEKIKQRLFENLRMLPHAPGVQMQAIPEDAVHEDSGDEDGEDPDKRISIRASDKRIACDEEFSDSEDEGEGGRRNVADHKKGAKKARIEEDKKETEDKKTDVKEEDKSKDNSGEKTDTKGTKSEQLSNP

- IC50 [4]: 1.98 µM
- Vz/F [5]: 7.01 (mg/kg)/(ug/ml)
- IC50 [6]: 10.7 µM
- Cmax [8]: 1110 ng/mL
- AUC(0-t) at 24 h [21]: 19600 ng·h/mL
- Cmax [23]: 9580 ng/mL
- MRT inf [26]: 6.57 h
- microsomal CLint [28]: 36.2 µL/min/mg
- inhibition [30]: < 17%
- inhibition [33]: < 17%
Compound: CCCNNC(=O)c1cnc(NCc2ccc(OC)cc2)cn1
- inhibition in vivo at 5 mg/kg [1]: 91.2%
- Activity [2]: 0.65 g
- selectivity ratio [3]: 286
- Activity [7]: Active
- Activity [9]: 94.6%
- Activity [10]: Active
- IC50 at 72 h [11]: 239 µM
- Activity [12]: Active
- Activity [13]: Non-Toxic
- Activity [14]: 82.7%
- inhibition [15]: Active
- Activity [16]: 185.23 mm3
- inhibition in vivo at 15 mg/kg [17]: 84.9%
- Activity [18]: Non-Toxic
- Activity [19]: Active
- Activity [20]: Active
- selectivity ratio [22]: 286
- Activity [24]: Non-Toxic
- Activity [25]: Active
- IC50 [27]: 0.55 µM
- Activity [29]: 101.23 mm3
- IC50 at 72 h [31]: 212 µM
- Activity [32]: Active
